# Results reported in patent US20030134859A1 (SANKYO COMPANY, LIMITED, priority 2000, published 2003).
# Tested on: Rat white adipocytes
# Assay: Inhibition of the differentiation of adipocytes (Oil Red O)
# Type: cell-based
# Conditions: Rattus norvegicus, Adipocyte, 120 h, 100 nM test compound; 5 days; Oil Red O ABS550; control = 100%, blank = 0%; Table 3; read-out: Rate of Differentiation (%)
# Outline: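 Rat white preadipocytes, 5,000 cells/well, given differentiation medium with compound at 100 nM final (0.1% DMSO) for 5 days at 37 °C. Lipid stained with Oil Red O, eluted in DMSO, read at 550 nm; differentiation % relative to DMSO control (100%) and blank (0%).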
row,Molecule,activity at 0.1 µM
1,"N#Cc1ccc(NC(=O)c2cc([N+](=O)[O-])ccc2Cl)cc1 [Example 20, N-(4-Cyanophenyl)-(2-chloro-5-nitrophenyl)carboxamide]",57.7%

# Tested on: human colon cancer cells COL-2-JCK
# Assay: Inhibition of colony forming activity in human colon cancer cells
# Type: cell-based
# Conditions: 1 μM test compound; 10 days; sum of colony areas vs control
# Outline: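 COL-2-JCK cells seeded at 300 cells/well and grown 10 days at 37 °C, 5% CO2 with compound at 1 μM final (0.1% DMSO). Colonies stained with crystal violet in formalin; inhibition % = (1 − treated/control colony area)×100.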
row,Molecule,Inhibition Rate (%) against the colony forming activity
1,Cc1cc(NS(=O)(=O)c2ccc(NC(=O)c3cc([N+](=O)[O-])ccc3Cl)cc2)no1 [Example 99],32.0%
2,N-[4-(Pyrrolidinylsulfonyl)phenyl]-(2-chloro-5-nitrophenyl)carboxamide [Example 152],24.0%

# Same assay, conditions: Homo sapiens, 240 h; 1 μM test compound; 10 days; sum of colony areas vs control; read-out: Inhibition Rate (%) against the colony forming activity
row,Molecule,inhibition at 1 µM
1,"N#Cc1ccc(NC(=O)c2cc([N+](=O)[O-])ccc2Cl)cc1 [Example 20, N-(4-Cyanophenyl)-(2-chloro-5-nitrophenyl)carboxamide]",37%
2,"Cc1ccccc1-c1csc(NC(=O)c2cc([N+](=O)[O-])ccc2Cl)n1 [Example 39, N-[4-(2-Methylphenyl)thiazol-2-yl]-(2-chloro-5-nitrophenyl)carboxamide]",48%
3,"Cc1cccc(-c2csc(NC(=O)c3cc([N+](=O)[O-])ccc3Cl)n2)c1 [Example 40, N-[4-(3-Methylphenyl)thiazol-2-yl)-(2-chloro-5-nitrophenyl)carboxamide]",35%
4,"O=C(Nc1nc(-c2cccc3ccccc23)cs1)c1cc([N+](=O)[O-])ccc1Cl [Example 41, N-[4-(1-Naphthyl)thiazol-2-yl]-(2-chloro-5-nitrophenyl)carboxamide]",55%
5,"CCc1ccc(-c2csc(NC(=O)c3cc([N+](=O)[O-])ccc3Cl)n2)cc1 [Example 44, N-[4-(4-Ethylphenyl)thiazol-2-yl]-(2-chloro-5-nitrophenyl)carboxamide]",35%
6,Cc1nc(NC(=O)c2cc([N+](=O)[O-])ccc2Cl)sc1C [Example 47],18%
7,"Cc1cccc(NC(=O)c2cc([N+](=O)[O-])ccc2Cl)n1 [Example 51, N-(6-Methylpyridin-2-yl)-(2-chloro-5-nitrophenyl)carboxamide]",15%
8,"Cc1ccc(NC(=O)c2cc([N+](=O)[O-])ccc2Cl)nc1 [Example 52, N-(5-Methylpyridin-2-yl)-(2-chloro-5-nitrophenyl)carboxamide]",17%
9,"O=C(Nc1cccc2cccnc12)c1cc([N+](=O)[O-])ccc1Cl [Example 57, N-(8-Quinolinyl)-(2-chloro-5-nitrophenyl)carboxamide]",5%
10,"O=C(Nc1ccc(S(=O)(=O)Nc2nccs2)cc1)c1cc([N+](=O)[O-])ccc1Cl [Example 96, N-[4-(Thiazol-2-yl)aminosulfonyl]phenyl-(2-chloro-5-nitrophenyl)carboxamide]",17%
11,"O=C(Nc1ccc(S(=O)(=O)Nc2ccc(Cl)nn2)cc1)c1cc([N+](=O)[O-])ccc1Cl [Example 102, N-[4-[(6-Chloropyridazin-3-yl)aminosulfonyl]phenyl]-(2-chloro-5-nitrophenyl)carboxamide]",26%
